Source: PubChem BioAssay AID492977 (The Scripps Research Institute Molecular Screening Center, 2010)
Activity calls are given as the source filed them.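 The calls were made as follows: active = inhibition of the parasite aminopeptidase above 50%; inactive = the rest.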

Target: Leucine aminopeptidase (Plasmodium falciparum (isolate 3D7)) (UniProt Q8IL11)
Experiment: inhibition of purified malaria M17 aminopeptidase – biochemical, fluorescence, recombinant enzyme, powder samples, late-stage follow-up (AID 492977)
Conditions: recombinant PfM17LAP, H-Leu-NHMec fluorogenic substrate; at 5 µM; active compounds read high

Chain of Leucine aminopeptidase (Plasmodium falciparum (isolate 3D7)) (Q8IL11 whole entry, looked up): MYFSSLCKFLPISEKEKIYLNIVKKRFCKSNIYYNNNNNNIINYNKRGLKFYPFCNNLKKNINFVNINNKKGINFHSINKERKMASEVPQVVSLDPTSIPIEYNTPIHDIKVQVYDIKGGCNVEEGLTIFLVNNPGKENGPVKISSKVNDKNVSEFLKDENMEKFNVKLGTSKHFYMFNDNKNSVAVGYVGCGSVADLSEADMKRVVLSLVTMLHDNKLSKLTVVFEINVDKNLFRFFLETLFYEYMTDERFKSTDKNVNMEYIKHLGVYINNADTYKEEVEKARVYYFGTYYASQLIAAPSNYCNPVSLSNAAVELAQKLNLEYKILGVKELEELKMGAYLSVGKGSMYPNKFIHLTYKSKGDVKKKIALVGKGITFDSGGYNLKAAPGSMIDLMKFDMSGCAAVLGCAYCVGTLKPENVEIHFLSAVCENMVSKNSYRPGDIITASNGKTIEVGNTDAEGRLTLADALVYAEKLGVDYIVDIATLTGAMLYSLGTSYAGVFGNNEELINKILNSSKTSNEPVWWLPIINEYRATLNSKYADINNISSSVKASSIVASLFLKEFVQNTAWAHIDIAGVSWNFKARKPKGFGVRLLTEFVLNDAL

inhibition | SMILES
36% (inactive) | Cc1ccc(-n2c(C)cc(C(=O)COC(=O)c3ccc[nH]c3=O)c2C)cc1C
43% (inactive) | CCN(CC)c1ccc(NC(=O)CSc2nc(C)cc(=O)[nH]2)cc1
93% | COc1cc(NC(=O)CSc2nc3c(C)ccc(C)c3cc2C)c(C(=O)O)cc1OC
12% (inactive) | Cn1c(SCC(=O)Nc2cccc3ccccc23)nc(O)cc1=O
86% | COc1cc(NC(=O)CSc2nc3ccccc3cc2C)c(C(=O)O)cc1OC
40% (inactive) | Cc1ccc(-n2c(C)cc(C(=O)COC(=O)c3ccc[nH]c3=O)c2C)cc1
20% (inactive) | C=CCn1c(SCC(=O)Nc2cccc3ccccc23)nc(O)c(CC)c1=O
15% (inactive) | O=C(O)CCCCCNC(=O)Nc1ccc2c(c1)OCCO2
18% (inactive) | COc1ccc(-c2cc(=O)[nH][nH]2)cc1OC
9% (inactive) | Cc1ccc(-c2cccc(NC(=O)[C@@H]3C4C=CC(C4)[C@@H]3C(=O)O)c2)o1 (some centres not stated)
2% (inactive) | O=c1cc(-c2ccc(Cl)c(Cl)c2)[nH][nH]1
89% | CCc1cc2ccccc2nc1SCC(=O)Nc1cc(OC)c(OC)cc1C(=O)O
27% (inactive) | S=c1nc(-c2ccccc2Br)[nH][nH]1
38% (inactive) | O=C(O)Cc1ccc(NC(=O)Nc2ccc(Br)cc2)cc1
49% (inactive) | O=c1cc(-c2ccc(F)cc2)[nH][nH]1
60% | O=C(CSc1nccc(=O)[nH]1)Nc1ccc(Br)c(Cl)c1
40% (inactive) | COc1ccc(-c2cc(=O)[nH][nH]2)cc1
14% (inactive) | O=C(Nc1cc(Cl)ccc1Cl)[C@H]1CC=CC[C@H]1C(=O)O
12% (inactive) | CC1=C(C)C[C@@H](C(=O)O)[C@@H](C(=O)Nc2cccc([N+](=O)[O-])c2)C1

inhibition | SMILES
31% (inactive) | CCOc1ccc(NC(=O)Nc2cccs2)cc1
20% (inactive) | CCOC(=O)c1c(NC(=O)[C@@H]2C3C=CC(C3)[C@@H]2C(=O)O)sc2c1CCC(CC)C2 (some centres not stated)
21% (inactive) | COC(=O)c1cccc(NC(=O)CSc2nc(C)cc(=O)[nH]2)c1
20% (inactive) | O=C(CSc1nc(O)cc(=O)n1-c1ccccc1)Nc1ccc2c3c(cccc13)CC2
90% | CCc1cc2ccc(C)cc2nc1SCC(=O)Nc1cc(OC)c(OC)cc1C(=O)O
13% (inactive) | O=C(Nc1cccc(Cl)c1)[C@H]1CC=CC[C@H]1C(=O)O
20% (inactive) | CCOC(=O)c1c(NC(=O)[C@@H]2C3CCC(O3)[C@@H]2C(=O)O)sc(C)c1-c1ccc(C)cc1 (some centres not stated)
19% (inactive) | Cc1ccc(-c2c(C)sc(NC(=O)[C@@H]3C4CCC(O4)[C@@H]3C(=O)O)c2C(=O)OC(C)C)cc1 (some centres not stated)
26% (inactive) | COc1ccc(C(C)(C)C)cc1NC(=O)[C@H]1CC=CC[C@H]1C(=O)O
15% (inactive) | CC(C)c1ccc(NC(=O)[C@H]2CCCC[C@H]2C(=O)O)cc1
17% (inactive) | Cc1ccc(NC(=O)CSc2nnc(C)c(=O)[nH]2)cc1C
27% (inactive) | CCc1ccc(NC(=O)[C@H]2CC=CC[C@H]2C(=O)O)cc1
23% (inactive) | Cc1cc(C(=O)COC(=O)c2ccc[nH]c2=O)c(C)n1-c1ccccc1
10% (inactive) | Cc1ccc(Nc2nnc(SCc3cc(=O)n4ccsc4n3)s2)c(C)c1
86% | COc1ccc2nc(SCC(=O)Nc3cc(OC)c(OC)cc3C(=O)O)c(C)cc2c1
45% (inactive) | S=c1nc(-c2cccc(Cl)c2)[nH][nH]1
50% (inactive) | COC(=O)c1c(-c2ccco2)csc1NC(=O)[C@H]1CC=CC[C@H]1C(=O)O
47% (inactive) | COC(=O)c1c(-c2ccc(C)cc2)csc1NC(=O)[C@H]1CC=CC[C@H]1C(=O)O
37% (inactive) | O=C(CSc1nnc(Nc2ccccc2)s1)NN1C(=O)NC2(CCCCC2)C1=O

inhibition | SMILES
31% (inactive) | CCc1ccc(Nc2nnc(SC3CCOC3=O)s2)cc1 (configuration not stated)
65% | O=C(Nc1ccc(Cl)cc1)Nc1cccc(C(=O)O)c1
21% (inactive) | COc1ccc(NC(=O)CSC2=NC(=O)CC(C)=N2)cc1
27% (inactive) | CCCCc1c(O)nc(SCC(=O)Nc2ccc3c(c2)CCC3)[nH]c1=O
89% | CCc1cc2cc(OC)ccc2nc1SCC(=O)Nc1cc(OC)c(OC)cc1C(=O)O
82% | COc1cc(NC(=O)CSc2nc3cc(C)ccc3cc2C)c(C(=O)O)cc1OC
19% (inactive) | CCOC(=O)c1c(-c2cccc(C)c2)csc1NC(=O)[C@H]1CC=CC[C@H]1C(=O)O
58% | COC(=O)c1c(-c2cc(C)ccc2C)csc1NC(=O)[C@@H]1CC=CC[C@@H]1C(=O)O
18% (inactive) | COc1ccc(NC(=O)CSc2nc(O)cc(=O)n2C)cc1
11% (inactive) | CCOc1ccc(NC(=O)Nc2ccc3nccnc3c2)cc1
25% (inactive) | N#Cc1c(NC(=O)[C@@H]2C3C=CC(C3)[C@@H]2C(=O)O)sc2c1CCCCC2 (some centres not stated)
59% | COC(=O)c1c(NC(=O)[C@H]2CCCC[C@H]2C(=O)O)sc2c1CCCCC2
24% (inactive) | CCOC(=O)c1c(-c2ccc(C)cc2)csc1NC(=O)[C@H]1CC=CC[C@H]1C(=O)O
72% | COc1cc(NC(=O)CSc2nnc3c(C)cc4cc(C)cc(C)c4n23)c(C(=O)O)cc1OC
53% | Cc1ccc(Nc2nnc(SC3CCOC3=O)s2)cc1 (configuration not stated)
70% | CCn1c2ccccc2c2cc(NC(=O)CSc3nccc(=O)[nH]3)ccc21
72% | CCOc1cccc(-c2cc(=O)[nH][nH]2)c1
19% (inactive) | Cc1cc(C(=O)COC(=O)c2ccc[nH]c2=O)c(C)n1-c1ccc(F)cc1
17% (inactive) | COC(=O)c1c(NC(=O)[C@H]2CC=CC[C@H]2C(=O)O)sc(C)c1C
